Test systems include A549; ACHN; BT-549; HCT-15; HOP-62; HT-29; IGROV-1; K562; LOX IMVI; M14; MDA-MB-435; NCI-H226; NCI-H23; OVCAR-3; SK-MEL-28; SR; U-251; COLO 205; RPMI-8226; SK-OV-3.
Test in all cases: inhibition of tumour cell growth, NCI panel, 48 h

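Growth conditions: 96-well plates. Treatment: test compound, 48 hours, 5 concentrations. Analysis: linear interpolation between bracketing concentrations; unreached endpoints set to highest concentration. Abbreviation: GI50, concentration required for 50% inhibition of growth.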 Calls of active or inactive are those of the source. Cut-off read from the data, not from the text of the source: active = GI50 up to about 1.1 µM and inactive = higher.

On to `Cn1c(=O)c2nc(CCNC(=O)c3ccccc3)[nH]c2n(C)c1=O`, for which the GI50 with A549 is > 100 µM (inactive); with ACHN, > 100 µM (inactive); in the assay on BT-549, > 100 µM (inactive); in the assay on HCT-15, above 100 µM; in the assay with HOP-62 it was > 100 µM (inactive); with HT-29 it was > 100 µM (inactive). Further, the GI50 in the assay with IGROV-1, in the assay with K562, in the assay on LOX IMVI, in the assay on M14, in the assay with MDA-MB-435 and in the assay on NCI-H226 was > 100 µM (inactive) throughout. Further, the GI50 with NCI-H23, in the assay with OVCAR-3, in the assay with SK-MEL-28, with SR and with U-251 was > 100 µM (inactive) each time.
For the molecule `Oc1ccc(/C=N/CC2CCCN3CCCCC23)cc1` (stereo unspecified), the GI50 is 27.3 µM (inactive) in the assay with A549; 15.5 µM (inactive) in the assay with ACHN; 21.3 µM (inactive) in the assay with BT-549; 27.6 µM (inactive) in the assay with COLO 205; 24.4 µM in the assay on HCT-15; 26.7 µM (inactive) in the assay with HOP-62. The GI50 is 16.6 µM (inactive) with HT-29; 24.2 µM (inactive) with IGROV-1; 43.3 µM (inactive) in the assay with K562; 21.4 µM (inactive) in the assay on LOX IMVI; 26.5 µM (inactive) in the assay with M14; 14.1 µM (inactive) in the assay on MDA-MB-435. Moreover, the GI50 was 21.6 µM (inactive) with NCI-H226; 24.9 µM (inactive) in the assay with NCI-H23; 29.4 µM (inactive) with OVCAR-3; 20.9 µM (inactive) in the assay with RPMI-8226; 22.5 µM (inactive) in the assay with SK-MEL-28; 46 µM (inactive) in the assay on SK-OV-3. In the assay with U-251, the GI50 was 17.6 µM (inactive).
`COc1ccc(N2C(=O)C3c4[nH]c5ccccc5c4C4c5ccccc5CC4C3C2=O)cc1` (stereo unspecified): the GI50 in the assay with A549 is > 100 µM (inactive); in the assay with ACHN, > 100 µM (inactive); in the assay with BT-549 it was > 100 µM (inactive); with COLO 205, > 100 µM (inactive); in the assay on HCT-15, above 100 µM; in the assay on HOP-62, > 100 µM (inactive). Besides, the GI50 with HT-29, in the assay with IGROV-1, with K562, in the assay on LOX IMVI, with M14 and in the assay on MDA-MB-435 was > 100 µM (inactive) throughout. The GI50 in the assay with NCI-H226, in the assay on NCI-H23, with OVCAR-3, in the assay with SK-MEL-28, in the assay on SK-OV-3 and with SR was > 100 µM (inactive) in each case. The GI50 with U-251 was > 100 µM (inactive).
Take `NC(=O)C[S+]([O-])CC(N)C(=O)O` (stereo unspecified): the GI50 was > 100 µM (inactive) in the assay on A549; > 100 µM (inactive) in the assay on ACHN; > 100 µM (inactive) in the assay on BT-549; above 100 µM in the assay with HCT-15; > 100 µM (inactive) with HOP-62; > 100 µM (inactive) in the assay with HT-29. In addition, the GI50 in the assay with IGROV-1, in the assay on K562, in the assay on LOX IMVI, in the assay with M14, in the assay with MDA-MB-435 and in the assay with NCI-H226 was > 100 µM (inactive) in each case. In addition, the GI50 in the assay on NCI-H23, with OVCAR-3, with SK-MEL-28, in the assay with SR and in the assay with U-251 was > 100 µM (inactive) in each case.
As to `O=C1SC(c2ccc(Cl)cc2)(c2ccc(Cl)cc2)c2ccccc21`, the GI50 with A549 is > 100 µM (inactive); in the assay with ACHN, 91 µM (inactive); in the assay on BT-549, > 100 µM (inactive); in the assay with COLO 205, 83 µM (inactive); in the assay on HCT-15 it was 34.8 µM; in the assay on HOP-62, > 100 µM (inactive). Also, the GI50 in the assay with HT-29 is 38.5 µM (inactive); in the assay on IGROV-1, > 100 µM (inactive); with K562 it was 44.5 µM (inactive); in the assay on LOX IMVI, 80.7 µM (inactive); in the assay with M14, 87.9 µM (inactive); in the assay on MDA-MB-435, 61.5 µM (inactive). The GI50 in the assay with NCI-H226 was 39.5 µM (inactive); with NCI-H23, 59.4 µM (inactive); in the assay on OVCAR-3, 79.3 µM (inactive); in the assay with RPMI-8226, 55.8 µM (inactive); in the assay with SK-MEL-28, > 100 µM (inactive); in the assay on SK-OV-3, > 100 µM (inactive). In addition, the GI50 with U-251 was > 100 µM (inactive).
Regarding `Brc1ccc2c3c1[C@H]1O[C@H]1c1cccc(c1-3)[C@@H]1O[C@H]21`, the GI50 is 22 µM (inactive) in the assay on A549; 15.3 µM (inactive) in the assay with ACHN; 16.5 µM (inactive) in the assay on BT-549; 19.3 µM (inactive) in the assay with COLO 205; 21.3 µM in the assay on HCT-15; 14.8 µM (inactive) in the assay on HOP-62. Further, the GI50 with HT-29 is 8.11 µM (inactive); in the assay with K562, 2.65 µM (inactive); in the assay on LOX IMVI, 2.82 µM (inactive); in the assay on M14 it was 17.2 µM (inactive); in the assay with MDA-MB-435, 15 µM (inactive); with NCI-H226 it was 24.5 µM (inactive). For the same molecule, the GI50 is 17.8 µM (inactive) in the assay with NCI-H23; 15.9 µM (inactive) in the assay with SK-MEL-28; 19.1 µM (inactive) in the assay on SK-OV-3; 20.2 µM (inactive) with SR; 14 µM (inactive) with U-251.
As for `O=C1NC(=S)NC(=O)C1=C/C=C/c1ccc([N+](=O)[O-])cc1`, the GI50 with A549 is 21.1 µM (inactive); in the assay on ACHN, 18 µM (inactive); with BT-549, 10.6 µM (inactive); in the assay on COLO 205, 13.2 µM (inactive); in the assay with HCT-15 it was 14.3 µM; with HOP-62, 18.7 µM (inactive). Also, the GI50 was 23.8 µM (inactive) in the assay on HT-29; 12.2 µM (inactive) in the assay with IGROV-1; 3.72 µM (inactive) in the assay with K562; 6.76 µM (inactive) in the assay with LOX IMVI; 15 µM (inactive) in the assay on M14; 10.4 µM (inactive) in the assay with MDA-MB-435. Also, the GI50 with NCI-H226 was 19.1 µM (inactive); with NCI-H23 it was 13.9 µM (inactive); in the assay with OVCAR-3 it was 14.3 µM (inactive); with RPMI-8226, 7.24 µM (inactive); in the assay with SK-MEL-28, 3.03 µM (inactive); in the assay with SK-OV-3, 20.2 µM (inactive). Further, the GI50 in the assay on U-251 was 4 µM (inactive).
Turning to `CCOC(=O)c1c(C)nc2c(c1-c1cn(-c3ccccc3)nc1-c1ccccc1)C(=O)c1ccccc1-2`, the GI50 in the assay on A549 is > 100 µM (inactive); in the assay on BT-549 it was > 100 µM (inactive); in the assay on COLO 205 it was > 100 µM (inactive); in the assay on HCT-15, above 100 µM; in the assay on HOP-62 it was > 100 µM (inactive); in the assay on HT-29 it was 13.8 µM (inactive). Besides, the GI50 in the assay on IGROV-1, with K562, in the assay on LOX IMVI, in the assay on M14, with MDA-MB-435 and in the assay on NCI-H226 was > 100 µM (inactive) throughout. The GI50 was > 100 µM (inactive) in the assay with NCI-H23; > 100 µM (inactive) in the assay on OVCAR-3; > 100 µM (inactive) in the assay on SK-MEL-28; > 100 µM (inactive) in the assay on SK-OV-3; > 10 µM (inactive) with SR; > 100 µM (inactive) in the assay on U-251.
As for `CC(N)C(C)Cc1ccccc1` (stereo unspecified), the GI50 in the assay on A549 was > 100 µM (inactive); in the assay on ACHN it was > 100 µM (inactive); in the assay with BT-549, > 100 µM (inactive); in the assay on COLO 205 it was > 100 µM (inactive); in the assay on HCT-15, above 100 µM; in the assay with HOP-62, > 100 µM (inactive). Besides, the GI50 in the assay with HT-29, with IGROV-1, with K562, in the assay with LOX IMVI, in the assay on M14 and in the assay on MDA-MB-435 was > 100 µM (inactive) in each case. The GI50 with NCI-H226, with NCI-H23, in the assay with OVCAR-3, in the assay with RPMI-8226, in the assay on SK-MEL-28 and in the assay with SK-OV-3 was > 100 µM (inactive) throughout. Moreover, in the assay with U-251, the GI50 is > 100 µM (inactive).
`N#Cc1[nH]c(=S)[nH]c1N`: the GI50 with A549 was > 100 µM (inactive); in the assay with ACHN, > 100 µM (inactive); in the assay on BT-549 it was > 100 µM (inactive); in the assay on COLO 205, > 100 µM (inactive); in the assay on HCT-15 it was above 100 µM; with HOP-62, > 100 µM (inactive). For the same molecule, the GI50 in the assay on HT-29, in the assay on IGROV-1, with K562, with LOX IMVI, in the assay on MDA-MB-435 and with NCI-H226 was > 100 µM (inactive) each time. In addition, the GI50 with NCI-H23, in the assay on OVCAR-3, in the assay on SK-MEL-28, with SK-OV-3, with SR and with U-251 was > 100 µM (inactive) in each case.
Take `Cc1ccccc1NC(=O)C(=O)CC(=O)c1sc(Nc2ccccc2[N+](=O)[O-])nc1C`: the GI50 with A549 was 34.8 µM (inactive); with ACHN, 20.3 µM (inactive); in the assay on BT-549 it was 30.7 µM (inactive); in the assay on COLO 205 it was 86.1 µM (inactive); with HCT-15 it was 52.4 µM; with HOP-62, 25.2 µM (inactive). In addition, the GI50 in the assay with HT-29 was 26.7 µM (inactive); in the assay with IGROV-1 it was 41.4 µM (inactive); in the assay with K562, 49.2 µM (inactive); in the assay with LOX IMVI, 37.4 µM (inactive); in the assay on M14, 39.7 µM (inactive); in the assay on MDA-MB-435, 29 µM (inactive). In addition, the GI50 in the assay on NCI-H226 was 34.8 µM (inactive); in the assay on NCI-H23 it was 36.8 µM (inactive); with OVCAR-3, 32 µM (inactive); in the assay on RPMI-8226, 27.9 µM (inactive); in the assay with SK-MEL-28, 25.7 µM (inactive); in the assay with SK-OV-3 it was 25.2 µM (inactive). Moreover, the GI50 in the assay with U-251 was 30.3 µM (inactive).

Values taken from ChEMBL document CHEMBL1201862, “PubChem BioAssay data set” (2004).
